In patent US5972961A, “4-aryl-3-aminoquinoline-2-one derivatives as potassium channel modulators” (Bristol-Myers Squibb Company, priority 1998, dated 1999):

system: cloned mammalian (mSlo or hSlo) BK channels; assay: BK-mediated outward current in Xenopus oocytes, two-electrode voltage clamp; format: cell-based; conditions: at 20 μM; expressed as percent increase over BK current in controls; IBTX-sensitive current; at least 5 oocytes
Protocol: The ability of compounds described in the present invention to open BK channels and increase whole-cell outward (K^+) BK-mediated currents was assessed under voltage-clamp conditions by determining their ability to increase cloned mammalian (mSlo or hSlo) BK-mediated outward current heterologously expressed in Xenopus oocytes [Butler, A., et al., Science, 261: 221-224 (1993); and Dworetzky, S. I., et al., Mol. Brain Res., 27: 189-193 (1994)]. The two BK constructs employed represent nearly structurally identical homologous proteins, and have proven to be pharmacologically identical in our tests. To isolate BK current from native (background, non-BK) current, the specific and potent BK channel-blocking toxin iberiotoxin (IBTX) [Galvez, A., et al., J. Biol. Chem., 265: 11083-11090 (1990)] was employed at a supramaximal concentration (50 nM). The relative contribution of BK channels current to total outward current was determined by subtraction of the current remaining in the presence of IBTX (non-BK current) from the current profiles obtained in all other experimental conditions (control, drug, and wash). […] All compounds were tested in at least 5 oocytes and are reported at the single concentration of 20 μM; the effect of the selected compounds of Formula I on BK current was expressed as the percent of control IBTX-sensitive current and is listed in Table I. Recordings were accomplished using standard two-electrode voltage clamp techniques [Stuhmer, W., et al., Methods in Enzymology, Vol. 207: 319-339 (1992)]; voltage-clamp protocols consisted of 500-750 ms duration step depolarizations from a holding potential of -60 mV to +140 mV in 20 mV steps. The experimental media (modified Barth's solution) consisted of (in mM): NaCl (88), NaHCO3 (2.4), KCl (1.0), HEPES (10), MgSO4 (0.82), Ca(NO3)2 (0.33), CaCl2 (0.41); pH 7.5.

SMILES	BK Current
O=c1[nH]c2ccc(C(F)(F)F)cc2c(-c2cc(Cl)ccc2O)c1NS(=O)(=O)c1ccc([N+](=O)[O-])cc1 [Example 64, N-[4-(5-Chloro-2-hydroxyphenyl)-2-oxo-6-(trifluoromethyl)-1H-quinolin-3-yl]-4-nitrobenzene-sulfonamide]	++ (++ = > 150%)
Nc1c(-c2cc(Cl)ccc2O)c2cc(Cl)c(C(F)(F)F)cc2[nH]c1=O [Example 43, 3-Amino-4-(5-chloro-2-hydroxyphenyl)-6-chloro-7-(trifluoromethyl)quinolin-2(1H)-one]	+ (+ = 100-150%)
O=C(Nc1c(-c2cc(Cl)ccc2O)c2cc(C(F)(F)F)ccc2[nH]c1=O)c1ccc(O)cc1 [Example 29, N-[4-(5-Chloro-2-hydroxyphenyl)-2-oxo-6-(trifluoromethyl)-1H-quinolin-3-yl]-4-hydroxybenzamide]	+ (+ = 100-150%)
O=c1[nH]c2ccc(C(F)(F)F)cc2c(-c2cc(Cl)ccc2O)c1NS(=O)(=O)C(F)(F)F [Example 5, N-[4-(5-Chloro-2-hydroxyphenyl)-2-oxo-6-(trifluoromethyl)-1H-quinolin-3-yl]trifluoromethanesulfonamide]	++ (++ = > 150%)
Nc1c(-c2ccc(O)c(Cl)c2)c2cc(C(F)(F)F)ccc2[nH]c1=O [Example 71, 3-Amino-4-(3-chloro-4-hydroxy-phenyl)-6-(trifluoromethyl)quinolin-2(1H)-one]	+ (+ = 100-150%)
Cn1c(=O)c(N)c(-c2cc(Cl)ccc2O)c2cc(C(F)(F)F)ccc21 [Example 68, 3-Amino-4-(5-chloro-2-hydroxy-phenyl)-1-methyl-6-(trifluoro-methyl)quinolin-2(1H)-one]	+ (+ = 100-150%)
O=C(Nc1c(-c2cc(Cl)ccc2O)c2cc(C(F)(F)F)ccc2[nH]c1=O)c1ccccc1 [Example 10, N-[4-(5-Chloro-2-hydroxyphenyl)-2-oxo-6-(trifluoromethyl)-1H-quinolin-3-yl]benzamide]	+ (+ = 100-150%)
O=C(Nc1c(-c2cc(Cl)ccc2O)c2cc(C(F)(F)F)ccc2[nH]c1=O)OCc1ccccc1 [Example 17, N-[4-(5-Chloro-2-hydroxyphenyl)-2-oxo-6-(trifluoromethyl)-1H-quinolin-3-yl]aminocarboxylic acid, phenylmethyl ester]	++ (++ = > 150%)
Nc1c(-c2cc(Cl)ccc2O)c2cc([N+](=O)[O-])ccc2[nH]c1=O [Example 19, 3-Amino-4-(5-chloro-2-hydroxyphenyl)-6-nitroquinolin-2(1H)-one]	++ (++ = > 150%)
O=c1[nH]c2ccc(C(F)(F)F)cc2c(-c2cc(Cl)ccc2O)c1NS(=O)(=O)c1ccc(F)cc1 [Example 66, N-[4-(5-Chloro-2-hydroxyphenyl)-2-oxo-6-(trifluoromethyl)-1 H-quinolin-3-yl]-(4-fluorobenzene)sulfonamide]	++ (++ = > 150%)
Nc1c(-c2cc(Cl)ccc2O)c2c(C(F)(F)F)c(Cl)ccc2[nH]c1=O [Example 44, 3-Amino-4-(5-chloro-2-hydroxyphenyl)-6-chloro-5-(trifluoromethyl)quinolin-2(1H)-one]	+ (+ = 100-150%)
Nc1c(-c2cc(Cl)ccc2O)c2cc(C(F)(F)F)ccc2[nH]c1=O [Example 2, 3-Amino-4-(5-chloro-2-hydroxyphenyl)-6-(trifluoromethyl)quinolin-2(1H)-one]	++ (++ = > 150%)
Nc1c(-c2cc(Cl)ccc2O)c2ccccc2[nH]c1=O [Example 14, 3-Amino-4-(5-chloro-2-hydroxyphenyl)quinolin-2(1H)-one]	+ (+ = 100-150%)
COc1ccc(CC(=O)Nc2c(-c3cc(Cl)ccc3O)c3cc(C(F)(F)F)ccc3[nH]c2=O)cc1 [Example 32, N-[4-(5-Chloro-2-hydroxyphenyl)-2-oxo-6-(trifluoromethyl)-1H-quinolin-3-yl]-(4-methoxyphenyl)acetamide]	+ (+ = 100-150%)

system: cortical infarct volume after middle cerebral artery occlusion; assay: Permanent focal ischemia, middle cerebral artery occlusion (MCAO model); format: in vivo, spontaneously hypertensive rat; conditions: 0.001 mg/kg intravenous single bolus 30 minutes after MCAO; vs vehicle-treated control; infarct measured 24 hours after MCAO
Description: To determine the ability of these compounds to reduce cell loss resulting from neuronal ischemia, a standard rodent model of permanent focal ischemia, involving occlusion of the middle cerebral artery in the spontaneously hypertensive rat (MCAO model) was employed [Tamura, A., et al., Journal of Cerebral Blood Flow and Metabolism, Volume 1, 53-60, (1981)].
Selected compounds have been evaluated in the focal stroke model involving permanent middle cerebral artery occlusion (MCAO) in the spontaneously hypertensive rat. This procedure results in a reliably large neocortical infarct volume that is measured by means of vital dye exclusion in serial slices through the brain 24 hours after MCAO. In the present test, compounds were administered using an intravenous route of administration at 30 minutes after occlusion.

SMILES	reduction of cortical infarct volume
Nc1c(-c2cc(Cl)ccc2O)c2cc(C(F)(F)F)ccc2[nH]c1=O [Example 2, 3-Amino-4-(5-chloro-2-hydroxyphenyl)-6-(trifluoromethyl)quinolin-2(1H)-one]	about 14%
